Like-named read-outs stand apart in the source and are kept apart here.
Tests used:
[1] = system: Chick embryo chorioallantoic membrane; experiment: CAM (chick embryo chorioallantoic membrane) assay; format: in vivo; conditions: 10-20 μg on coverslip, 2 days, FIG. 2
Experimental: CAM (Chick embryo chorioallantoic membrane) assay was conducted as an in vivo model to determine whether the compounds according to the present invention, I-3, I-6, I-19, and I-22, had anti-angiogenic effects or not. DMSO-treated groups were used as negative controls.
According to the present invention, CAM assay was performed as follows.
Fertilized eggs were incubated periodically rolling at 37° C. with 50% humidity for 2-3 days. When eggs were erected, approximately 3 ml of albumin was extracted from the sharp edge of the eggs using a syringe. The hole of the eggs was sealed with a tape to prevent from dryness and contamination, and the hole of the eggs was put down and incubated for 2 to 3 days. After punching a hole with 1.5 cm diameter in the round part of eggs, opaque membrane was removed carefully. The compounds (10-20 μg) according to the present invention were placed and spread on thermanox coverslip equally to dry, and then the hole in the round part of eggs put on the upper part of the fertilized eggs that vessels grew. The eggs were examined under the dissecting microscope and the results were given in FIG. 2, after covering the hole with a coverglass to protect it from contamination for 2 days.

HIF-1α = biological target: T1, HIF-1α (Homo sapiens, UniProt Q16665); experiment: Inhibition of hypoxia-induced HIF-1α accumulation, western blot in HCT116 cells; format: cell-based; conditions: HCT116, hypoxia 1% O2, 0-30 μM, 12 hours, FIG. 1
T1 construct: endogenous in cells; host or cells: HCT116 human colon cancer cells (ATCC #CCL-247)
Experimental: <Experiment 2> In Vitro Studies for Inhibition of Hypoxia-Induced HIF-1α Accumulation
Inhibition of HIF-1α accumulation by the compounds according to the present invention was determined in HCT116 human colon cancer cells. In particular, western blot analysis was used to identify the compounds, I-3, I-6, I-8, I-16, I-19, I-22˜I-24, and I-27˜I-36, which inhibited HIF-1α accumulation under hypoxia.
(§1) First, HCT116 human colon cancer cells (ATCC #CCL-247) were plated at the concentration of 2×10^5 cells/ml. After 24 hours, the cells were incubated under hypoxia (1% O2, 94% N2, and 5% CO2, expressed as 1% O2 in FIG. 1) for 4 hours in order to induce HIF-la accumulation. Cells were treated with the compounds at various concentrations (0, 3, 10, 20, and 30 μM) for 12 hours under hypoxia. The cells were then harvested, and lysed in RIPA buffer to obtain nuclear extracts. Cells grown at 20% O2 (normoxia) were used as control groups to compare HIF-1α-mediated gene expression under each condition. 30 μg of the nuclear extracts per sample was separated by SDS-PAGE (sodium dodecyl sulfate-polyacrylamide gel electrophoresis), and was then transferred to PVDF (polyvinylidene fluoride membrane) membranes. After membranes were probed with HIF-1α antibodies (R&D System), HIF-1α proteins were detected with HRP-conjugated secondary antibodies (Amersham-Pharmacia). GAPDH (Glyceraldehyde 3-phosphate dehydrogenase) was used as an internal control for loading in western blot analysis.

[2] = system: HCT116 colon cancer cells; experiment: In vivo anti-cancer activity by oral administration, HCT116 tumor in nude mice; parameters: species or system BALB/c nu/nu mice; conditions: for inhibition in vivo at 20 mg/kg: Mus musculus
Experimental: <Example 4> In Vivo Anti-Cancer Activity of Compounds by Oral Administration
(§2) In vivo anti-cancer activity of the compounds according to the present invention, I-3, I-6, I-8, I-16, I-19, I-22, I-23, and I-24, was measured in mice to evaluate in vivo efficacy by oral administration. Specifically, the nude mice were divided into test groups and control groups, each consisting of 4 mice. In vivo efficacy was evaluated by measuring body weight, tumor volume, and tumor weight.
(§3) Female nude mice 6 weeks old (BALB/c nu/nu, Charles River) were bred in germ-free breeding rooms maintained at constant temperature and humidity. After the nude mice were anesthetized, HCT116 colon cancer cells were implanted at a count of […] cells/mouse into the rectum in BALB/c nu/nu mice and then the incisions were closed with surgical clips. The size of tumor was measured by a caliper. When the size of transplanted tumor reached to 50˜60 mm^3, the above compounds according to the present invention were administered. In more detail, after the above compounds in test groups were dissolved at concentration of 20 mg/kg in a solvent containing 80% of physiological saline, 10% of DMAC (dimethylacetamide), and 10% Tween 80 (hereinafter referred to as ‘Solvent A’), […] of dissolved compounds were orally administered once a day. Mice in control groups were treated with […] of Solvent A alone once daily.
(§4) Tumor volume and body weight were measured to identify in vivo anti-cancer activity of the compounds according to the present invention by repetitive oral administration. Tumor volume and tumor growth inhibition (TGI) in Table 2 were calculated according to the below Mathematic FIG. 1 and FIG. 2, respectively. Tumor growth inhibition was converted to a percentage in Table 2.

[3] = Body weight change and side effects during 14 days of oral treatment in nude mice; format: in vivo, BALB/c nu/nu mice
Experimental: as §2, §3, §4
Moreover, severe side effects and statistically significant changes of body weight in all mice treated compounds were not shown for 14 days, comparing to control groups treated with vehicle. (Table 3)

[4] = system: HIF-1α-mediated HRE transcriptional activity; experiment: Assay for inhibition of HIF-1α-mediated transcriptional activity (HRE reporter assay); format: cell-based, human; conditions: Homo sapiens, HCT-116, HCT116 cells, 12 hours under hypoxia (1% O2), read-out: Inhibitory activity against HIF-1α (10 μM)
Procedure, shortened: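 HCT116 human colon cancer cells co-transfected with pGL3 luciferase reporter carrying six HRE copies from human VEGF plus Renilla control, then treated with 0–20 μM compound for 12 h under hypoxia (1% O2). Inhibition taken from dual-luciferase reporter activity in lysates.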

GAPDH = GAPDH expression level (internal control) in western blot, HCT116 cells; format: cell-based, human; conditions: HCT116, hypoxia 1% O2, 0-30 μM, 12 hours, FIG. 1
Experimental: as §1

[5] = day 3, 20 mg/kg oral once a day
[6] = day 5, 20 mg/kg oral once a day
[7] = day 7, 20 mg/kg oral once a day
[8] = day 10, 20 mg/kg oral once a day
[9] = day 12, 20 mg/kg oral once a day
[10] = day 14, 20 mg/kg oral once a day

T1 sequence (Q16665 whole entry): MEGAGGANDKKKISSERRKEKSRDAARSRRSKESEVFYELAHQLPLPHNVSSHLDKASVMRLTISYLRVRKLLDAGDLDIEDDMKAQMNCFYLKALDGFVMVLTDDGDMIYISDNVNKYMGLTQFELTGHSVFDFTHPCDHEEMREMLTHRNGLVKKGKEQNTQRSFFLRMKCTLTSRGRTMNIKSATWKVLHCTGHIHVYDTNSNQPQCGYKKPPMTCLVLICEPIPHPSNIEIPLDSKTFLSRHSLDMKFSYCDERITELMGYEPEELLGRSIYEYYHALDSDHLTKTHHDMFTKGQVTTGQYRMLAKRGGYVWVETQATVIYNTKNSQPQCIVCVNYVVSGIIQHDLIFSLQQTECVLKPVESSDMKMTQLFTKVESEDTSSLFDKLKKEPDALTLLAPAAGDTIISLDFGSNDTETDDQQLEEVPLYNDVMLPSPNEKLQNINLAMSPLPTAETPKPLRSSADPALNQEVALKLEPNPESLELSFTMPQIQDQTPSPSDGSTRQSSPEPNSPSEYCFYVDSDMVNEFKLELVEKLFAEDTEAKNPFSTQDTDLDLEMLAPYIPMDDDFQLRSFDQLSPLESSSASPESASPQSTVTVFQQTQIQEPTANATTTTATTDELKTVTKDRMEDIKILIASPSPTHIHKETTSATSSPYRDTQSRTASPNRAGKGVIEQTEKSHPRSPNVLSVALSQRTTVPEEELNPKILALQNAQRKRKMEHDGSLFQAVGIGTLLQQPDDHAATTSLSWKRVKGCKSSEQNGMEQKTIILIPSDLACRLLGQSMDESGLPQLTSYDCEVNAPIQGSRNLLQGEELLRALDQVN

With `C[N+](C)(C)CCNC(=O)CCOc1ccc(C23CC4CC(CC(C4)C2)C3)cc1.[I-]` [Compound I-19, 2-(3-(4-(Adamantan-1-yl)phenoxy)propanamido)-N,N,N-trimethylethanaminium iodide] the “formation of vessels (anti-angiogenic effect)” value [1] was “inhibited formation of vessels”, the HIF-1α degradation (HIF-1α) was “promoted HIF-1α degradation” and the “inhibitory effects on HIF-1α accumulation” value (HIF-1α) was “significant inhibitory effects on HIF-1α accumulation”. The “inhibitory effects on tumor growth (TGI results)” value ([2]; 20 mg/kg oral once a day, 14 days) was “significant inhibitory effects on tumor growth”, the inhibition in vivo at 20 mg/kg ([2]; HCT-116, 72 h, day 3, 20 mg/kg oral once a day, read-out: TGI (tumor growth inhibition), tumor volume) was 34.1% and the inhibition in vivo at 20 mg/kg ([2]; HCT-116, 120 h, day 5, 20 mg/kg oral once a day, read-out: TGI (tumor growth inhibition), tumor volume) was 36.4%. The inhibition in vivo at 20 mg/kg ([2]; HCT-116, 168 h, day 7, 20 mg/kg oral once a day, read-out: TGI (tumor growth inhibition), tumor volume) was 36.8%, the inhibition in vivo at 20 mg/kg ([2]; HCT-116, 240 h, day 10, 20 mg/kg oral once a day, read-out: TGI (tumor growth inhibition), tumor volume) was 37.7% and the inhibition in vivo at 20 mg/kg ([2]; HCT-116, 288 h, day 12, 20 mg/kg oral once a day, read-out: TGI (tumor growth inhibition), tumor volume) was 37.8%. The inhibition in vivo at 20 mg/kg ([2]; HCT-116, 336 h, day 14, 20 mg/kg oral once a day, read-out: TGI (tumor growth inhibition), tumor volume) was 39.2%, the inhibition in vivo at 20 mg/kg ([2]; HCT-116, 336 h, day 14, 20 mg/kg oral once a day, read-out: TGI (tumor growth inhibition), tumor weight) was 41.3% and the Tumor volume [2, 5] was 22.4 ± 5.6 mm^3. It also gave a Tumor volume [2, 6] of 58.8 ± 11.3 mm^3, a Tumor volume [2, 7] of 110.4 ± 11.2 mm^3 and a Tumor volume [2, 8] of 162.3 ± 10.1 mm^3. For the same molecule, the Tumor volume [2, 9] was 278.8 ± 35.0 mm^3, the Tumor volume [2, 10] was 404.7 ± 17.6 mm^3 and the Tumor weight [2, 10] was 1392.4 ± 153.0 mg. It also gave a Body weight change ([3]; day 0, 20 mg/kg oral once a day) of 100.0 ± 0.0%, a Body weight change [3, 5] of 104.0 ± 1.6% and a Body weight change [3, 6] of 104.7 ± 3.1%. It also gave a Body weight change [3, 7] of 104.6 ± 4.0%, a Body weight change [3, 8] of 105.1 ± 4.3% and a Body weight change [3, 9] of 103.4 ± 3.5%. The Body weight change [3, 10] was 102.2 ± 3.8%, the inhibition at 10 µM [4] was 26 to 50% and the GAPDH expression levels (GAPDH) was “did not affect GAPDH expression levels”.

— patent US9789114B2, “Compounds as HIF-1α inhibitors and manufacturing process thereof” (DONGGUK UNIVERSITY INDUSTRY-ACADEMIC COOPERATION FOUNDATION, priority 2011, dated 2017)
